Where a SMILES comes first, the peptide text is derived from it. The star is where a group is joined. Cbz = O=C(OCc1ccccc1)*; CH2F = FC*
What was measured:
Type in all cases: cell-based
[1] = test system: isolated live cancer cells; test: augmentation culture with DNA methyltransferase inhibitor (Example 3); conditions: decitabine 100-500 nM throughout, or 1 μM-10 μM at beginning of augmentation phase
Method: Isolated live cancer cells are placed in tissue culture. The tissue culture medium is supplemented with decitabine from the beginning of the augmentation phase for not less than one hour and up to the entire augmentation phase depending on concentration. A concentration of 100-500 nM can be used throughout the augmentation phase of cultivation. Alternatively a higher concentration of 1 μM-10 μM can be used at beginning of the augmentation phase and then removed or reduced to the lower concentration.

[2] = test system: isolated live cancer cells; test: augmentation culture with proteasome inhibitors (Example 4); conditions: lactacystin 0.1-1 μM, epoxomicin 1-2 μM, and/or HMB 10-150 μg/mL; at least the last 24 hours prior to harvest
Method: Isolated live cancer cells are placed in tissue culture. The tissue culture medium is supplemented with lactacystin at a concentration of 0.1-1 μM, epoxomicin at a concentration of 1-2 μM, and/or HMB at a concentration of 10-150 μg/mL. The inhibitor can be present throughout the augmentation phase of culture, or a portion thereof, but at least the last 24 hours prior to harvest. Doses in the lower end of the stated ranges are appropriate for longer term exposure. Doses at the high end of the state ranges can be used in the last 24 hours of cultivation. The content of protein (including normal, mutated and misfolded proteins) in the cancer cells is increased.

[3] = test system: established ovarian tumor line; test: cell survival of ovarian tumor line culture exposed to proteasome inhibitor and/or caspase inhibitor
Method: To benefit from the increased antigen content that can be obtained through use of a proteasome inhibitor, but also avoid triggering apoptosis, the proteasome inhibitor can be used in conjunction with a caspase inhibitor. First, to find the concentration of the proteasome inhibitor that caused minimal cell death, a range of bortezomib dilutions were tested in vitro on an established ovarian tumor line after reaching 70-90% confluence. The cultures were maintained in a standard DMEM:F12 media with 5% FBS. Bortezomib was reconstituted in DMSO and added directly to the cultures in concentrations from 0.1 to 100 nM
A concentration of 20 μM was chosen for further experiments.
Then the sequential application of the caspase inhibitor and proteasome inhibitor was tested. The tumor cells were cultured in the presence of 20 μM caspase inhibitor Z-VAD-fmk for 24 hours and then the medium was exchanged for medium containing bortezomib and the cells culture for another 48 hours. Bortezomib was used at the lowest concentration of that induced cell death, 5 nM.
The simultaneous application of Bortezomib and Z-VAD-fmk was also tested using 1 nM Botezomib with either 1 or 20 μM Z-VAD-fmk.

[4] = test system: isolated live cancer cells; test: culture with caspase inhibitor (Example 6); conditions: Z-VAD-fmk 5-50 μM throughout proliferation and augmentation phases
Method: Isolated live cancer cells are placed in tissue culture. The tissue culture medium is supplemented with the broad spectrum caspase inhibitor Z-VAD-fmk at a concentration of 5-50 μM. The caspase inhibitor is added at the initiation of cell culture and maintained throughout the proliferation and augmentation phases of culture.

[5] = test system: isolated live cancer cells; test: augmentation culture with histone deacetylase inhibitors (Example 2); conditions: 0.01 mM to 10 mM each in the medium during augmentation phase
Method: Isolated live cancer cells are placed in tissue culture. During an augmentation phase, the tissue culture medium is supplemented with valproic acid or phenylbutyrate, or both, each at a concentration of 0.01 mM to 10 mM each. The level of histone acetylation, mRNA transcription, and protein expression, including expression of TAA, all increase.

[6] = test system: isolated live cancer cells; test: depletion of Wnt signaling ligands (Example 7); conditions: beta-methyl-cyclodextrin 0.5-20 mM, one half to 3 hours prior to the end of the augmentation phase
Method: Isolated live cancer cells are placed in tissue culture. One half to 3 hours prior to the end of the augmentation phase and preparation for DC loading, the tissue culture medium is supplemented with beta-methyl-cyclodextrin at a concentration of 0.5-20 mM. Cholesterol and Wnt ligands are depleted from the plasma membrane of the cancer cells.

CA125 = test: antibody labeling and epifluorescence imaging of protein content, CA125; conditions: bortezomib 0.1 nM to 1.0 nM, without caspase inhibitor (FIGS. 6 and 7)
Excerpt: (§1) To evaluate protein content, we queried two targets that are commonly found in cancers: CA125, which is typically specific for ovarian cancer, and MUC1, which is common in many types of cancer (for example, colon, breast, ovarian, lung and pancreatic). The proteins were labeled using antibodies conjugated with Alexa Fluor 488 (green; anti-MUC1) or 594 (red; anti-CA125). The cells were imaged with an epifluorescence microscope (Nikon) with pre-set parameters for exposure and magnification.

MUC1 = test: antibody labeling and epifluorescence imaging of protein content, MUC1; conditions: bortezomib 0.1 nM to 1.0 nM, without caspase inhibitor (FIGS. 6 and 7)
Excerpt: as §1

Nc1ncn([C@H]2C[C@H](O)[C@@H](CO)O2)c(=O)n1 [decitabine, 5-aza-2′-deoxycytidine]
expression of silenced germ line and tumor-specific antigens [1]: increased and becomes more uniform
hypermethylation [1]: reversed

CC(C)(O)CC(=O)O [HMB, beta-hydroxy beta-methylbutyrate]
content of protein (including normal, mutated and misfolded proteins) in the cancer cells [2]: increased

COC(=O)C[C@H](NC(=O)[C@H](C)NC(=O)[C@@H](NC(=O)OCc1ccccc1)C(C)C)C(=O)CF [Z-VAD-fmk] (Cbz-Val-Ala-Asp(OMe)-CH2F)
effect on cell survival ([3]; Z-VAD-fmk 10-100 μM, without an apoptotic challenge): did not have an effect on cell survival
accumulation of proteins, including TAA [4]: accumulate to higher levels than in untreated cultures
viability of the cultured cancer cells [4]: maintaining a high degree of viability

CCCC(CCC)C(=O)O [valproic acid]
level of histone acetylation, mRNA transcription, and protein expression, including expression of TAA [5]: increase

CC(=O)N[C@@H](CSC(=O)[C@]1([C@@H](O)C(C)C)NC(=O)[C@H](C)[C@@H]1O)C(=O)O [lactacystin]
content of protein (including normal, mutated and misfolded proteins) in the cancer cells [2]: increased

methyl-β-cyclodextrin [beta-methyl-cyclodextrin]
cholesterol and Wnt ligands of the plasma membrane of the cancer cells [6]: depleted

CC[C@H](C)[C@H](NC(=O)[C@H]([C@@H](C)CC)N(C)C(C)=O)C(=O)N[C@H](C(=O)N[C@@H](CC(C)C)C(=O)[C@@]1(C)CO1)[C@@H](C)O [epoxomicin]
content of protein (including normal, mutated and misfolded proteins) in the cancer cells [2]: increased

CC(C)C[C@H](NC(=O)[C@H](Cc1ccccc1)NC(=O)c1cnccn1)B(O)O [bortezomib]
effect on survival ([3]; below 1 nM bortezomib): did not have effect on survival
lowest concentration that induced cell death ([3]; bortezomib alone): 5 nM
cell survival ([3]; concentrations above 5 nM bortezomib, within 24 hours, DMEM:F12 with 5% FBS): all cells died
cell survival ([3]; from 5 nM to 1 nM bortezomib): cell survived proportional with decreasing concentration
abundance and content of CA125 (mean fluorescence intensity, sum of labeled pixels) (CA125): increase
abundance and content of MUC1 (mean fluorescence intensity, sum of labeled pixels) (MUC1): increase

Source: patent publication US20250236841A1, “METHODS TO ENHANCE TUMOR IMMUNOGENICITY AND COMPOSITIONS FOR AUTOLOGOUS CANCER IMMUNOTHERAPEUTIC PRODUCTS USING MODIFIED TUMOR CELLS AND MODIFIED DENDRITIC CELLS” (AIVITA BIOMEDICAL, INC., priority 2017, published 2025)
